Experimental data: article PMC5572697, “A first-in-human study of the novel HIV-fusion inhibitor C34-PEG4-Chol” (Scientific Reports, 2017)
Entries after “also recorded” stand apart in the source; their conditions may differ.

Legend:
HIV-positive men = test: First-in-human safety and injection site reaction (ISR) grading; assay type: in vivo; settings: for ISR grade: one participant
Procedure: Dosing was commenced at the lowest dose of 10 mg in a volume of 1 mL. Randomisation was undertaken using the InForm™ Integrated Trial Management system and was on a 1:1 basis, with no predefined stratifications. All clinical study staff were blinded. Clinical research pharmacists who were not part of the clinical research team, were not blinded in order to reconstitute study products. These members of the research pharmacy team had no involvement in the clinical care of participants during study procedures.
At all study time-points, participants were reviewed for ISRs, a symptom-directed physical examination was performed and blood samples were collected for full blood picture, electrolytes, liver enzymes, amylase and glucose. An electrocardiogram was performed pre-dose and 4 and 12 hours after dosing. A decision to proceed with dose escalation was made only after all four participants in each dose cohort had been observed for a minimum of 7 days for safety assessments. All safety data were reviewed by an independent data monitoring committee (IDMC).
Supplementary Information 1:
Table S1: List of injection site reactions (ISR) grading

[1] = Human plasma pharmacokinetics after a single subcutaneous dose; assay type: in vivo; set-up: Area under plasma-concentration-time-curve: unit not given here; settings: for half-life / Cmax / Tmax / Vd: sc; for Cmax: LC-MS/MS, non-compartmental, read-out: Maximum observed concentration; for Tmax: read-out: Time to maximum observed concentration; for Vd: read-out: Volume of distribution; for Time-to-MEC (time plasma concentrations remained above the minimum effective concentration): assay cut-off 62.5 ng/mL used as surrogate
Procedure: Intensive pharmacokinetic sampling was performed over the first 24 hours subsequent to dosing with samples collected pre-dose, 0.5 h, 1 h, 2 h, 4 h, 6 h, 8 h, 12 h, 24 h. Thereafter pharmacokinetic sampling was undertaken on days 2, 3, 4, 7, 10, 14, 21 and 28. Plasma samples (100 µL) were extracted in 300 µL of acetonitrile containing 1% formic acid; vortexed and centrifuged at 4000 rpm for 10 minutes. The supernatant was transferred into autosampler vials, and 25 μL injected onto the LC-MS/MS. Quantitative analysis of C34-PEG4-Chol was performed by LC-MS/MS using a Thermo Quantum Access triple quadrupole mass spectrometer, interfaced with a heated electrospray ionisation (H-ESI) source (Thermo Fisher Scientific, Hemel Hempstead, UK). The HPLC system included a variable loop Accela autosampler and an Accela pump (ThermoScientific, Hemel Hempstead, UK). Chromatographic separation was achieved using a reverse-phase XBridge Peptide BEH C18 column (3.5 µm; 50 mm × 2.1 mm) (Waters Corporation, Milford, US) interfaced with a 2 µm C18 Quest column saver (Thermo Scientific, Hemel Hempstead, UK). The gradient mobile phase, consisting of a solvent A (0.1% formic acid in Water) and solvent B (0.1% formic acid in acetonitrile), was delivered at a flow rate of […]. Detection of C34-PEG4-Chol was performed in the pseudo Selected Reaction Monitoring mode, monitoring a triple charged molecular ion [M + 3 H]3 + at m/z 1756.8. The internal standard (quinoxaline), was monitored at m/z 313.1 → 246.1. Peak area ratios of compound to internal standard were utilized to construct a calibration curve with a weighting of 1/x2. Data acquisition and processing was performed using LCQuan software (Version 2.7, Thermo Scientific, Hemel Hempstead, UK). The assay calibration range was between 62.5–10,000 ng/mL; inter and intra-assay accuracy and precision at the assay limit of quantification (LLQ) fell within the designated ±20% of the nominal value, and were within ±15% for all QC levels.
Pharmacokinetic parameters were derived via non-compartmental modeling. The area-under-the-concentration-time-curve (AUC) was calculated following a single dose, assuming linear decrease over time, by linear trapezoidal method. The maximum concentration (Cmax) observed at each dose and the time-to-Cmax (Tmax) were calculated. The time to reach minimum effective concentration was assessed in order to determine the frequency of future dosing regimens. […] Given our assay cut-off was 62.5 ng/mL, our assay cut off was used as a surrogate for the IC90.

in vivo = settings: rat, Wistar Han rats; for AUC(0-inf): plasma LC-MS, mean of three animals per point
Procedure: C34-PEG4-Chol first in man – Supplementary Information
Supplementary Information 2:
Preclinical Pharmacokinetics of C34-PEG4-Chol […]
C34-PEG4-Chol was formulated in 10 mM phosphate buffered saline (pH 7.2). The concentration of C34-PEG4-Chol in plasma samples was determined by LC-MS as previously […]
(1 picture or pasted object on this page, not shown here) […]
Figure S3. Pharmacokinetics of C34-PEG4-Chol in rats 3.5 mg/kg or 1.0 mg/kg (SC and IV, respectively) of C34-PEG4-Chol in 10mM phosphate buffered saline (PBS) were administered to Wistar Han rats: volume of administration 0.5 mL/kg. The concentration of the dosing solution was determined immediately after dosing with the same analytical method utilized to monitor peptide plasma concentration with time, and the analytical curves were adjusted accordingly. Each data point is the mean of three animals.
Table S3. Calculated pharmacokinetics parameters of C34-PEG4-Chol in rats, following intravenous (IV) and subcutaneous (SC) administration.

[2] = human, in vivo, 10 mg, participant 1, single SC 10 mg
[3] = human, in vivo, 10 mg, participant 3, single SC 10 mg
[4] = human, in vivo, 20 mg, participant 5, single SC 20 mg

Structure (SMILES): CC[C@H](C)[C@H](NC(=O)[C@H](CC(C)C)NC(=O)[C@H](CO)NC(=O)[C@H](Cc1c[nH]cn1)NC(=O)[C@@H](NC(=O)[C@H](CC(C)C)NC(=O)[C@H](CO)NC(=O)[C@@H](NC(=O)[C@H](Cc1ccc(O)cc1)NC(=O)[C@H](CC(N)=O)NC(=O)[C@H](CC(N)=O)NC(=O)[C@@H](NC(=O)[C@H](CCC(=O)O)NC(=O)[C@H](CCCNC(=N)N)NC(=O)[C@H](CC(=O)O)NC(=O)[C@H](Cc1c[nH]c2ccccc12)NC(=O)[C@H](CCC(=O)O)NC(=O)[C@H](CCSC)NC(=O)[C@H](Cc1c[nH]c2ccccc12)NC(C)=O)[C@@H](C)CC)[C@@H](C)O)[C@@H](C)CC)C(=O)N[C@@H](CCC(=O)O)C(=O)N[C@@H](CCC(=O)O)C(=O)N[C@@H](CO)C(=O)N[C@@H](CCC(N)=O)C(=O)N[C@@H](CC(N)=O)C(=O)N[C@@H](CCC(N)=O)C(=O)N[C@@H](CCC(N)=O)C(=O)N[C@@H](CCC(=O)O)C(=O)N[C@@H](CCCCN)C(=O)N[C@@H](CC(N)=O)C(=O)N[C@@H](CCC(=O)O)C(=O)N[C@@H](CCC(N)=O)C(=O)N[C@@H](CCC(=O)O)C(=O)N[C@@H](CC(C)C)C(=O)N[C@@H](CC(C)C)C(=O)NCC(=O)N[C@@H](CO)C(=O)NCC(=O)N[C@@H](CSCC(=O)NCCOCCOCCOCCOCCC(=O)O[C@H]1CC[C@@]2(C)C(=CC[C@H]3[C@@H]4CC[C@H]([C@H](C)CCCC(C)C)[C@@]4(C)CC[C@@H]32)C1)C(N)=O [C34-PEG4-Chol]
- Individuals with grade 3 ISR among those administered active drug (HIV-positive men; 3 men received active drug (10 mg, 10 mg, 20 mg), subcutaneous): 2 out of 3
- ISR grade (HIV-positive men; single subcutaneous 10 mg dose): grade 3
- ISR grade (HIV-positive men; single subcutaneous 20 mg dose): grade 3
- Systemic clinical or laboratory toxicities (HIV-positive men; single subcutaneous 10 or 20 mg, 84 days follow up): No systemic toxicities were observed; also recorded: No systemic clinical toxicities or laboratory defined toxicities were observed
- half-life [1, 2]: 2880 min
- Cmax ([1]; human, in vivo, 10 mg, participant 1, single SC 10 mg, plasma): 418 ng/mL
- Tmax [1, 2]: 2 h
- Vd [1, 2]: 24 L
- half-life [1, 3]: 3240 min
- Cmax ([1]; human, in vivo, 10 mg, participant 3, single SC 10 mg, plasma): 278 ng/mL
- Tmax [1, 3]: 6 h
- Vd [1, 3]: 39.5 L
- half-life [1, 4]: 2760 min
- Cmax ([1]; human, in vivo, 20 mg, participant 5, single SC 20 mg, plasma): 1030 ng/mL
- Tmax [1, 4]: 2 h
- Vd [1, 4]: 19.5 L
- AUC ([1]; human, in vivo, participant 3, single SC 10 mg, linear trapezoidal, read-out: Area under plasma-concentration-time-curve): 200 ng·h/mL
- level at 72 h ([1]; human, plasma, two subjects, single SC 10 mg, above the LLOQ, read-out: Plasma concentration at 72 hours): > 62 ng/mL
- Area under plasma-concentration-time-curve ([1]; participant 5, single SC 20 mg, linear trapezoidal): 506
- Time-to-MEC (time plasma concentrations remained above the minimum effective concentration) ([1]; single SC 10 mg): 72 h
- Time-to-MEC (time plasma concentrations remained above the minimum effective concentration) ([1]; single SC 20 mg): 96 h
- Half-life, range over the three participants ([1]; single SC 10, 10 and 20 mg): 46 to 54 h
- clearance (in vivo; IV 1.0 mg/kg): 0.48 mL/min/kg
- AUC(0-inf) (in vivo; IV 1.0 mg/kg in 10 mM PBS): 6.6 µM·h
- Vd (in vivo; IV 1.0 mg/kg, read-out: Vdss): 0.08 L/kg
- half-life (in vivo; IV 1.0 mg/kg, read-out: t½ (converted)): 131 min
- Cmax (in vivo; SC 3.5 mg/kg): 260 nM
- Tmax (in vivo; SC 3.5 mg/kg): 3.3 h
- bioavailability (in vivo; SC 3.5 mg/kg): 7.97%
- AUC(0-inf) (in vivo; SC 3.5 mg/kg in 10 mM PBS): 1.86 µM·h
